Assay results: patent publication US20260027125A1, “AN ANTIBACTERIAL PARENTERAL FORMULATION AND METHODS THEREOF” (BUGWORKS RESEARCH INDIA PVT. LTD., priority 2022, published 2026)
Counter-ions that a name gives are not always drawn.

Key:
Yersinia pestis = experiment: microbe, parasite or virus in culture; assay type: cell-based
[1] = tested on: Bacteroides fragilis (anaerobe); experiment: microbe, parasite or virus in culture; assay type: cell-based
[2] = tested on: Coagulase-negatives Staphylococcus; experiment: microbe, parasite or virus in culture; assay type: cell-based
A. baumannii ATCC 17978 = experiment: Neutropenic murine model of thigh infection; assay type: in vivo, Acinetobacter baumannii; conditions: neutropenic mice
Neisseria gonorrhoea [3] = experiment: microbe, parasite or virus in culture
Pseudomonas aeruginosa = experiment: microbe, parasite or virus in culture; assay type: cell-based
Providencia spp. = experiment: microbe, parasite or virus in culture; assay type: cell-based
[4] = tested on: Burkholderia cepacia species; experiment: microbe, parasite or virus in culture; assay type: cell-based
Francisella tularensis = experiment: microbe, parasite or virus in culture; assay type: cell-based
Neisseria gonorrhoea [5] = tested on: Neisseria gonorrhoea
[6] = tested on: Fusobacterium spp. (anaerobe); experiment: microbe, parasite or virus in culture; assay type: cell-based
Salmonella species = experiment: microbe, parasite or virus in culture; assay type: cell-based
Enterococcus faecium = experiment: microbe, parasite or virus in culture; assay type: cell-based
Staphylococcus aureus = experiment: microbe, parasite or virus in culture; assay type: cell-based
Escherichia coli = experiment: microbe, parasite or virus in culture; assay type: cell-based
Enterobacter cloacae = experiment: microbe, parasite or virus in culture; assay type: cell-based
Helicobacter pylori = experiment: microbe, parasite or virus in culture
Enterococcus faecalis = experiment: microbe, parasite or virus in culture; assay type: cell-based
Shigella sp. = experiment: microbe, parasite or virus in culture; assay type: cell-based
Enterobacter aerogenes = experiment: microbe, parasite or virus in culture; assay type: cell-based
Bacillus anthracis = experiment: microbe, parasite or virus in culture; assay type: cell-based
[7] = Photostability study (ICH-Q1B); assay type: physicochemical; conditions: ICH-Q1B illumination
Streptococcus pyogenes = experiment: microbe, parasite or virus in culture; assay type: cell-based
Burkholderia mallei = experiment: microbe, parasite or virus in culture; assay type: cell-based
Serratia marcescens = experiment: microbe, parasite or virus in culture; assay type: cell-based
Klebsiella pneumoniae = experiment: microbe, parasite or virus in culture; assay type: cell-based
Legionella pneumophila = experiment: microbe, parasite or virus in culture; assay type: cell-based
Streptococcus pneumoniae = experiment: microbe, parasite or virus in culture; assay type: cell-based
Campylobacter sp. = experiment: microbe, parasite or virus in culture; assay type: cell-based
[8] = Burkholderia cepacia species clinical isolates, N 75
[9] = Legionella pneumophila clinical isolates, N 35

Cn1c(=O)ccc2ccc(F)c(CCNC[C@H]3CN(c4cnc5c(n4)NC(=O)CO5)C(=O)O3)c21 [compound of Formula (I) formate salt, (S)-6-(5-(((2-(7-fluoro-1-methyl-2-oxo-1,2-dihydroquinolin-8-yl)ethyl)amino)methyl)-2-oxooxazolidin-3-yl)-2H-pyrazino[2,3-b][1,4]oxazin-3(4H)-one formate]
MIC50 (Yersinia pestis): ≤ 0.015 µg/mL
MIC90 (Yersinia pestis): ≤ 0.015 µg/mL
MIC Range, high end (Yersinia pestis; N 35 strains): ≤0.015 µg/mL
MIC Range, low end (Yersinia pestis; N 35 strains): ≤0.015 µg/mL
MIC Range, high end [1]: 8 µg/mL
MIC Range, low end [1]: ≤0.015 µg/mL
MIC50 ([1]; Bacteroides fragilis): 0.06 µg/mL
MIC90 ([1]; Bacteroides fragilis): 0.25 µg/mL
MIC Range, high end [2]: 0.03 µg/mL
MIC Range, low end [2]: <0.015 µg/mL
MIC50 ([2]; Staphylococcus): < 0.015 µg/mL
MIC90 ([2]; Staphylococcus): < 0.015 µg/mL
effect on bacterial burden in thigh (A. baumannii ATCC 17978; SC 10 mg/kg q8h, 26 hours): effective at reducing
effect on bacterial burden in thigh (A. baumannii ATCC 17978; SC 30 mg/kg q8h, 26 hours): effective at reducing
effect on bacterial burden in thigh (A. baumannii ATCC 17978; SC 60 mg/kg q8h, 26 hours): either a bacteriostatic or killing effect
effect on bacterial burden in thigh (A. baumannii ATCC 17978; SC 90 mg/kg q8h, 26 hours): logarithmic killing
effect on bacterial burden in thigh (A. baumannii ATCC 17978; SC 120 mg/kg q8h, 26 hours): logarithmic killing
efficacy compared with polymyxin B (SC 25 mg/kg q8h) (A. baumannii ATCC 17978; doses ≥90 mg/kg q8h SC): more effective
efficacy compared with subcutaneous meropenem (200 mg/kg q8h) (A. baumannii ATCC 17978; doses ≥90 mg/kg q8h SC): more effective
effect on bacterial burden in thigh (A. baumannii ATCC 17978; ≥60 mg/kg q8h SC, across three replicate studies): logarithmic killing
MIC50 (Neisseria gonorrhoea [3]): ≤ 0.015 µg/mL
MIC90 (Neisseria gonorrhoea [3]): ≤ 0.015 µg/mL
MIC Range, high end (Pseudomonas aeruginosa): 8 µg/mL
MIC Range, low end (Pseudomonas aeruginosa): <0.015 µg/mL
MIC50 (Pseudomonas aeruginosa; Pseudomonas aeruginosa): 0.5 µg/mL
MIC90 (Pseudomonas aeruginosa; Pseudomonas aeruginosa): 1 µg/mL
MIC Range, high end (Providencia spp.): 32 µg/mL
MIC Range, low end (Providencia spp.): 0.06 µg/mL
MIC50 (Providencia spp.; Providencia): 0.5 µg/mL
MIC90 (Providencia spp.; Providencia): 2 µg/mL
MIC50 ([4]; Burkholderia cepacia): 0.06 µg/mL
MIC90 ([4]; Burkholderia cepacia): 0.5 µg/mL
MIC Range, high end [4, 8]: 2 µg/mL
MIC Range, low end [4, 8]: 0.03 µg/mL
MIC50 (Francisella tularensis): ≤ 0.015 µg/mL
MIC90 (Francisella tularensis): ≤ 0.015 µg/mL
MIC Range, high end (Francisella tularensis; N 36 strains): ≤0.015 µg/mL
MIC Range, low end (Francisella tularensis; N 36 strains): ≤0.015 µg/mL
MIC Range, high end (Neisseria gonorrhoea [5]): ≤0.015 µg/mL
MIC Range, low end (Neisseria gonorrhoea [5]): ≤0.015 µg/mL
MIC Range, high end [6]: 0.5 µg/mL
MIC Range, low end [6]: ≤0.015 µg/mL
MIC50 ([6]; Fusobacterium): ≤ 0.015 µg/mL
MIC90 ([6]; Fusobacterium): ≤ 0.015 µg/mL
MIC Range, high end (Salmonella species): 2 µg/mL
MIC Range, low end (Salmonella species): 0.03 µg/mL
MIC50 (Salmonella species; Salmonella): 0.12 µg/mL
MIC90 (Salmonella species; Salmonella): 0.25 µg/mL
MIC Range, high end (Enterococcus faecium): 0.5 µg/mL
MIC Range, low end (Enterococcus faecium): <0.015 µg/mL
MIC50 (Enterococcus faecium; Enterococcus faecium): 0.03 µg/mL
MIC90 (Enterococcus faecium; Enterococcus faecium): 0.12 µg/mL
MIC Range, high end (Staphylococcus aureus): 0.5 µg/mL
MIC Range, low end (Staphylococcus aureus): <0.015 µg/mL
MIC50 (Staphylococcus aureus; Staphylococcus aureus): 0.03 µg/mL
MIC90 (Staphylococcus aureus; Staphylococcus aureus): 0.03 µg/mL
MIC Range, high end (Escherichia coli): 4 µg/mL
MIC Range, low end (Escherichia coli): ≤0.015 µg/mL
MIC50 (Escherichia coli; Escherichia coli): 0.12 µg/mL
MIC90 (Escherichia coli; Escherichia coli): 0.5 µg/mL
MIC Range, high end (Enterobacter cloacae): 32 µg/mL
MIC Range, low end (Enterobacter cloacae): ≤0.015 µg/mL
MIC50 (Enterobacter cloacae; Enterobacter cloacae): 0.25 µg/mL
MIC90 (Enterobacter cloacae; Enterobacter cloacae): 1 µg/mL
MIC50 (Helicobacter pylori): ≤ 0.015 µg/mL
MIC90 (Helicobacter pylori): ≤ 0.015 µg/mL
MIC Range, high end (Enterococcus faecalis): 0.25 µg/mL
MIC Range, low end (Enterococcus faecalis): <0.015 µg/mL
MIC50 (Enterococcus faecalis; Enterococcus faecalis): 0.03 µg/mL
MIC90 (Enterococcus faecalis; Enterococcus faecalis): 0.06 µg/mL
MIC Range, high end (Shigella sp.): 0.25 µg/mL
MIC Range, low end (Shigella sp.): ≤0.015 µg/mL
MIC50 (Shigella sp.; Shigella): 0.03 µg/mL
MIC90 (Shigella sp.; Shigella): 0.06 µg/mL
MIC Range, high end (Enterobacter aerogenes): 0.25 µg/mL
MIC Range, low end (Enterobacter aerogenes): 0.25 µg/mL
MIC50 (Enterobacter aerogenes; Klebsiella aerogenes): 0.25 µg/mL
MIC90 (Enterobacter aerogenes; Klebsiella aerogenes): 0.25 µg/mL
MIC50 (Bacillus anthracis): ≤ 0.015 µg/mL
MIC90 (Bacillus anthracis): ≤ 0.015 µg/mL
MIC Range, high end (Bacillus anthracis; N 42 strains): ≤0.015 µg/mL
MIC Range, low end (Bacillus anthracis; N 42 strains): ≤0.015 µg/mL
sensitivity to light [7]: sensitive to light
MIC Range, high end (Streptococcus pyogenes): 0.06 µg/mL
MIC Range, low end (Streptococcus pyogenes): 0.03 µg/mL
MIC50 (Streptococcus pyogenes; Streptococcus pyogenes): 0.03 µg/mL
MIC90 (Streptococcus pyogenes; Streptococcus pyogenes): 0.03 µg/mL
MIC50 (Burkholderia mallei): 0.25 µg/mL
MIC90 (Burkholderia mallei): 1 µg/mL
MIC Range, high end (Burkholderia mallei; N 36 strains): 4 µg/mL
MIC Range, low end (Burkholderia mallei; N 36 strains): ≤0.015 µg/mL
MIC Range, high end (Serratia marcescens): 32 µg/mL
MIC Range, low end (Serratia marcescens): 0.03 µg/mL
MIC50 (Serratia marcescens; Serratia marcescens): 0.25 µg/mL
MIC90 (Serratia marcescens; Serratia marcescens): 1 µg/mL
MIC Range, high end (Klebsiella pneumoniae): 32 µg/mL
MIC Range, low end (Klebsiella pneumoniae): 0.03 µg/mL
MIC50 (Klebsiella pneumoniae; Klebsiella pneumoniae): 0.5 µg/mL
MIC90 (Klebsiella pneumoniae; Klebsiella pneumoniae): 2 µg/mL
MIC50 (Legionella pneumophila; Legionella pneumophila): ≤ 0.015 µg/mL
MIC90 (Legionella pneumophila; Legionella pneumophila): ≤ 0.015 µg/mL
MIC Range, high end (Legionella pneumophila; [9]): ≤0.015 µg/mL
MIC Range, low end (Legionella pneumophila; [9]): ≤0.015 µg/mL
MIC Range, high end (Streptococcus pneumoniae): 0.06 µg/mL
MIC Range, low end (Streptococcus pneumoniae): 0.03 µg/mL
MIC50 (Streptococcus pneumoniae; Streptococcus pneumoniae): 0.03 µg/mL
MIC90 (Streptococcus pneumoniae; Streptococcus pneumoniae): 0.03 µg/mL
MIC Range, high end (Campylobacter sp.): 0.03 µg/mL
MIC Range, low end (Campylobacter sp.): ≤0.015 µg/mL
MIC50 (Campylobacter sp.; Campylobacter): ≤ 0.015 µg/mL
MIC90 (Campylobacter sp.; Campylobacter): ≤ 0.015 µg/mL
